Results on 17 compounds are retold here after patent US20250163069A1, “HETEROCYCLIC DERIVATIVE, AND PHARMACEUTICAL COMPOSITION AND APPLICATION THEREOF” (priority 2022, published 2025).

One may read the CC50 as the concentration at which the toxic effect on the cells reaches its halfway point. Low values mean harm at low concentration, high ones better tolerance by the cells. The term half-life denotes how long it takes for the measured level to halve. One may read the hepatocyte CLint as the capacity of the preparation to metabolise the compound, expressed as a volume cleared per time. Higher therefore signals rapid turnover. By bioavailability is commonly meant dose-corrected exposure relative to a reference, in per cent.

Structures are written as SMILES. Read-outs that look alike come from different tables or passages of the source. Some results are limits rather than exact numbers.

Series [1] relates to HCMV. The experiment in a line: In vitro anti-HCMV activity, GFP reporter virus in MRC5 cells. Type of series: cell-based, Human Cytomegalovirus. How it is done:
(§1) Experimental method for in vitro biological activity study: The HCMV virus used in this experiment contains a reporter gene GFP. The inhibitory activity of the compounds against HCMV was detected by detecting the expression of GFP, and the cytotoxicity was also determined; the compounds were tested at 8 concentrations, with 3-fold gradient dilution, and double wells. MRC5 cells were seeded in microtiter plates at a certain density and cultured overnight at 37° C. in 5% CO2. The compounds and viruses were added the next day. […] The final concentration of DMSO in the cell culture medium was 0.5%, the cells were cultured at 37° C. in 5% CO2 for 7 days, the fluorescence value of each well was detected using Acumen, and the original data were used to calculate the antiviral activity of the compounds. The cytotoxicity experiment was the same as the antiviral experiment, but without viral infection; CCK-8 reagent was used to detect cell viability, and the original data were used to calculate the cytotoxicity of the compounds. Software GraphPad Prism was used to analyze the dose-response curves of the compounds and calculate the EC50 and CC50 values (see Table 1 for the results).

Series [2] can be described thus: in vitro. As to conditions: human. The format is cell-based. The method, then: as §1, with “compounds.” for “compounds. Software GraphPad Prism was used to analyze the dose-response curves of the compounds and calculate the EC50 and CC50 values (see Table 1 for the results).”
Series [3] has as its system human hepatocyte suspension. The experiment in a line: Hepatocyte metabolic stability test. Type of series: in vitro ADME. As to conditions: for k: Human hepatocytes 1.0 × 10^6 cells/mL, tested compounds 1 μM, positive control 3 μM. How it is done:
(§2) Test method: The compounds to be tested will be co-incubated with human hepatocyte suspension at a concentration of 1 μM. At different time points, ice acetonitrile containing internal standard was added to the system to terminate the reaction, after vortexing and centrifugation, the supernatant was taken, and the test compounds in the supernatant were analyzed by LC-MS/MS method. The in vitro intrinsic clearance rate was calculated according to the clearance rate constant of the tested compounds in the incubation system. 7-ethoxycoumarin and 7-hydroxycoumarin were used as positive controls, and the blank culture medium incubation group without hepatocytes was used as negative control.
(§3) Data analysis: The ratio of the peak areas of the analyte/internal standard (Aanalyte/AIS) was obtained by the instrument, and the remaining percentage (% Control) was calculated from the ratio of Aanalyste/AIS in the sample at non-zero time point to that at the zero time point. Ln (% Control) was plotted against incubation time and linearly fitted. The clearance constant (k, min^−1), clearance half-life (T1/2, min), and in vitro intrinsic clearance rate (CLint, hepatocyte, μL/min/10^6 cells) of the tested compounds were calculated using the following equation.
(§4) CLint,hepatic (mL/min/kg) refers to the inherent clearance rate of liver in vivo.

Series [4] can be described thus: Hepatocyte metabolic stability test. As to conditions: for half-life at 1 μM / hepatocyte CLint at 1 μM: tested compounds 1 μM; for CLint scaled at 1 μM: Human, scaled with 120 × 10^6 cells/g liver and 21 g liver/kg, read-out: CLint, hepatic. The format is in vitro ADME, Human. How it is done:
as §2, §3, §4

In series [5] the test system is MRC5 cells. The experiment in a line: in vitro. Type of series: cell-based. As to conditions: human, 7 days. The method, then:
as §1, with “compounds.” for “compounds. Software GraphPad Prism was used to analyze the dose-response curves of the compounds and calculate the EC50 and CC50 values (see Table 1 for the results).”

For series [6] the following is noted: cited from earlier work.
Series [7] has as its system CMV virus. As to conditions: after 28 days of treatment; cited from earlier work.
[8] abbreviates: Human betaherpesvirus 5, 168 h, HCMV with GFP reporter, MRC5 cells, 7 days, read-out: EC50.
Where [9] appears, read: Human betaherpesvirus 5, MRC5, Table 1, read-out: activity in inhibiting HCMV.
The mark [10] stands for this setting: hepatocyte suspension, Human hepatocytes 1.0 × 10^6 cells/mL, positive control 3 μM.
Where [11] appears, read: Human hepatocytes 1.0 × 10^6 cells/mL, positive control 3 μM.

Regarding `COc1cccc(N2CCN(C3=Nc4c(F)cccc4[C@H](CC(=O)O)N3c3cc(C(F)(F)F)ccc3OC)CC2)c1` (racemic) [Letermovir (racemic), letermovir (racemic), reference compound], in series [1] (HCMV with GFP reporter, MRC5 cells, 7 days, read-out: EC50), the EC50 turned out to be 3.92 nM.

As to `COc1cccc(N2CCN(C3=Nc4c(F)cccc4C(CC(=O)OCc4oc(=O)oc4C)N3c3cc(C(F)(F)F)ccc3OC)C[C@H]2C)c1` (single isomer, unassigned) [Compound I-41], the EC50 in series [1] (setting [8]) was 0.15 nM; in series [1] (setting [9]) it was < 1 nM. In series [2], this compound returned a CC50 at 7 days of 39.3 µM.

As for `CCOc1ccc2ccc(=O)oc2c1` [7-ethoxycoumarin], in series [3], the k was 0.0348 min⁻¹. In series [4] (setting [10]), this compound yielded a half-life at 1 μM of 19.9 min and a hepatocyte CLint at 1 μM of 34.8 µL/min/1e6 cells. The CLint scaled at 1 μM in series [4] (hepatocyte suspension) came out at 87.7 mL/min/kg.

In turn, `O=c1ccc2ccc(O)cc2o1` [7-hydroxycoumarin] gave a k in series [3] of 0.0401 min⁻¹. Further, in series [4] (setting [11]), the half-life is 17.3 min and the intrinsic metabolic clearance (hepatocyte CLint) at 1 μM came to 40.1 µL/min/1e6 cells. Moreover, the CLint scaled at 1 μM in series [4] (hepatocytes) was determined as 101 mL/min/kg.

Regarding `COC(=O)OCOC(=O)C[C@H]1c2cccc(F)c2N=C(N2CCN(c3cccc(OC)c3)CC2)N1c1cc(C(F)(F)F)ccc1OC` [Compound I-5], in series [1] (setting [8]), the EC50 stood at 2.62 nM. Further, in series [2], the CC50 at 7 days was > 50 µM.

For the compound `COc1cccc(N2CCN(C3=Nc4c(F)cccc4[C@H](CC(=O)OCOC(C)=O)N3c3cc(C(F)(F)F)ccc3OC)CC2)c1` [Compound I-8], the EC50 in series [1] (setting [8]) is 1.47 nM. Moreover, the cytotoxic concentration (CC50) at 7 days in series [2] is > 50 µM.

Regarding `COc1cccc(N2CCN(C3=Nc4c(F)cccc4[C@H](CC(=O)OCOC(=O)C(C)(C)C)N3c3cc(C(F)(F)F)ccc3OC)CC2)c1` [Compound I-13], the EC50 in series [1] (setting [8]) was determined as 2.76 nM. In series [2], the 50% cytotoxic concentration (CC50) at 7 days is > 50 µM.

Consider `COc1cccc(N2CCN(C3=Nc4c(F)cccc4[C@H](CC(=O)OCc4oc(=O)oc4C)N3c3cc(C(F)(F)F)ccc3OC)CC2)c1` [Compound I-17], for which, in series [1] (setting [8]), the EC50 worked out at 1.52 nM. The compound further showed a CC50 in series [5] of 43.5 µM.

For the compound `COc1cccc(N2CC3CCC(C2)N3C2=Nc3c(F)cccc3C(CC(=O)O)N2c2cc(C(F)(F)F)ccc2OC)c1` (stereo not shown) [Compound I-19], in series [1] (setting [8]), the EC50 came out at 2.81 nM. Besides, in series [2], the cytotoxic concentration (CC50) at 7 days came out at 23.8 µM.

In the case of `COc1cccc(N2CCN(C3=Nc4c(F)cccc4C(CC(=O)O)N3c3cc(C(F)(F)F)ccc3OC)C[C@H]2C)c1` (stereo partly shown) [Compound I-23], the figures for the EC50 in series [1] (setting [8]) and in series [1] (setting [9]) were 0.28 nM and < 1 nM, respectively. Moreover, the CC50 at 7 days in series [2] is > 50 µM.

Take `COc1cc(N2CCN(C3=Nc4c(F)cccc4C(CC(=O)O)N3c3cc(C(F)(F)F)ccc3OC)C[C@H]2C)ccn1` (stereo partly shown) [Compound I-24]: the EC50 in series [1] (setting [8]) was 0.46 nM; in series [1] (setting [9]), < 1 nM. For the same compound, in series [2], the half-maximal cytotoxic concentration (CC50) at 7 days was > 50 µM.

With `COc1cccc(N2CCN(C3=Nc4c(F)cccc4[C@H](CC(=O)O)N3c3cc(C(F)(F)F)ccc3OC)C[C@H]2C)c1` [Compound I-25], in series [3], the k worked out at 0.000154 min⁻¹. Further, the “metabolic stability of human hepatocytes compared with letermovir” value in series [3] (human hepatocytes) is “better metabolic stability”. In series [4] (setting [10]), this compound yielded a half-life at 1 μM of 4500 min and a hepatocyte CLint at 1 μM of 0.154 µL/min/1e6 cells. For the same compound, the CLint scaled at 1 μM in series [4] (hepatocyte suspension) turned out to be 0.388 mL/min/kg. Further, the EC50 in series [1] (setting [8]) was 0.17 nM. Further, the EC50 in series [1] (setting [9]) was < 1 nM. In series [2], the CC50 at 7 days was > 50 µM.

Consider `COc1cc(N2CCN(C3=Nc4c(F)cccc4[C@H](CC(=O)O)N3c3cc(C(F)(F)F)ccc3OC)C[C@H]2C)ccn1` [Compound I-26], for which the EC50 in series [1] (setting [8]) is 0.26 nM; in series [1] (setting [9]) it was < 1 nM. In addition, the cytotoxic concentration (CC50) at 7 days in series [2] is > 50 µM.

Take `COc1cccc(N2CCN(C3=Nc4c(F)cccc4[C@H](CC(=O)OCOC(C)=O)N3c3cc(C(F)(F)F)ccc3OC)C[C@H]2C)c1` [Compound I-33]: the figures for the EC50 in series [1] (setting [8]) and in series [1] (setting [9]) were 0.06 nM and < 1 nM, respectively. Besides, the 50% cytotoxic concentration (CC50) at 7 days in series [2] is > 50 µM.

Take `COc1cc(N2CCN(C3=Nc4c(F)cccc4C(CC(=O)OCOC(C)=O)N3c3cc(C(F)(F)F)ccc3OC)CC2C)ccn1` (stereo not shown) [Compound I-49]: the EC50 in series [1] (setting [8]) is 0.46 nM; in series [1] (setting [9]) it was < 1 nM. In addition, in series [2], the CC50 at 7 days was > 50 µM.

Regarding `COc1cc(N2CCN(C3=Nc4c(F)cccc4[C@H](CC(=O)OCOC(C)=O)N3c3cc(C(F)(F)F)ccc3OC)C[C@H]2C)ccn1` [Compound I-53], the results for the EC50 in series [1] (setting [8]) and in series [1] (setting [9]) were 0.32 nM and < 1 nM, respectively. Moreover, in series [2], the CC50 at 7 days is > 50 µM.

For `COc1cccc(N2CCN(C3=Nc4c(F)cccc4[C@H](CC(=O)O)N3c3cc(C(F)(F)F)ccc3OC)CC2)c1` [Letermovir, letermovir], in series [6] (hematopoietic cell transplant (HCT) recipients, letermovir alone), the bioavailability result is given as “about 37%”. For the same compound, the bioavailability in series [6] (with cyclosporin) is reported as 85%. In series [3], this compound had a k of 0.0022 min⁻¹. For the same compound, in series [4] (setting [10]), the half-life at 1 μM was found to be 316 min and the hepatocyte CLint at 1 μM worked out at 2.2 µL/min/1e6 cells. Also, the CLint scaled at 1 μM in series [4] (hepatocyte suspension) worked out at 5.53 mL/min/kg. Besides, the “CMV virus detection in the patient” value in series [7] is recorded as “no CMV virus was detected”.
